From ChEMBL document CHEMBL5465560, “Selectivity Literature for EUbOPEN Chemogenomic Library” (2024) come the findings set out here.

Each structure is given as a SMILES string.

Assay [1] addresses T1, Tyrosine-protein kinase TXK (Homo sapiens) (UniProt P42681).
T1 sequence (whole entry): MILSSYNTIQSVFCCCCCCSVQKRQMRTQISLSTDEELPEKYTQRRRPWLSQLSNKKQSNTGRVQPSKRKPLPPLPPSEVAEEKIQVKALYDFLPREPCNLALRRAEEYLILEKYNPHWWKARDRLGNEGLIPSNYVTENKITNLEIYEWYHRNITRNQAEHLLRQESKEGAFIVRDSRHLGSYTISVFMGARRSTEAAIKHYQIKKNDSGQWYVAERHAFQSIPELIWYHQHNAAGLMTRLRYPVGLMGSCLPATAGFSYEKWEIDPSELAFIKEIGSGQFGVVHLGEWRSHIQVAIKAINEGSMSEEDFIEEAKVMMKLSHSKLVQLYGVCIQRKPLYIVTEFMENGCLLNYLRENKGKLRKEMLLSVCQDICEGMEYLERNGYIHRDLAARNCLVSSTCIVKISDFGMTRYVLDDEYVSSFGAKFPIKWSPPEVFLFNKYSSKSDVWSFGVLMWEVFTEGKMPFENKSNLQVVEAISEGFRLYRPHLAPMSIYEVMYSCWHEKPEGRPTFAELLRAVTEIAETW
The note with it: at 10 µM.

Assay [2] has as its target T2, Myosin-IIIb (Homo sapiens) (UniProt Q8WXR4).
T2 sequence (whole entry): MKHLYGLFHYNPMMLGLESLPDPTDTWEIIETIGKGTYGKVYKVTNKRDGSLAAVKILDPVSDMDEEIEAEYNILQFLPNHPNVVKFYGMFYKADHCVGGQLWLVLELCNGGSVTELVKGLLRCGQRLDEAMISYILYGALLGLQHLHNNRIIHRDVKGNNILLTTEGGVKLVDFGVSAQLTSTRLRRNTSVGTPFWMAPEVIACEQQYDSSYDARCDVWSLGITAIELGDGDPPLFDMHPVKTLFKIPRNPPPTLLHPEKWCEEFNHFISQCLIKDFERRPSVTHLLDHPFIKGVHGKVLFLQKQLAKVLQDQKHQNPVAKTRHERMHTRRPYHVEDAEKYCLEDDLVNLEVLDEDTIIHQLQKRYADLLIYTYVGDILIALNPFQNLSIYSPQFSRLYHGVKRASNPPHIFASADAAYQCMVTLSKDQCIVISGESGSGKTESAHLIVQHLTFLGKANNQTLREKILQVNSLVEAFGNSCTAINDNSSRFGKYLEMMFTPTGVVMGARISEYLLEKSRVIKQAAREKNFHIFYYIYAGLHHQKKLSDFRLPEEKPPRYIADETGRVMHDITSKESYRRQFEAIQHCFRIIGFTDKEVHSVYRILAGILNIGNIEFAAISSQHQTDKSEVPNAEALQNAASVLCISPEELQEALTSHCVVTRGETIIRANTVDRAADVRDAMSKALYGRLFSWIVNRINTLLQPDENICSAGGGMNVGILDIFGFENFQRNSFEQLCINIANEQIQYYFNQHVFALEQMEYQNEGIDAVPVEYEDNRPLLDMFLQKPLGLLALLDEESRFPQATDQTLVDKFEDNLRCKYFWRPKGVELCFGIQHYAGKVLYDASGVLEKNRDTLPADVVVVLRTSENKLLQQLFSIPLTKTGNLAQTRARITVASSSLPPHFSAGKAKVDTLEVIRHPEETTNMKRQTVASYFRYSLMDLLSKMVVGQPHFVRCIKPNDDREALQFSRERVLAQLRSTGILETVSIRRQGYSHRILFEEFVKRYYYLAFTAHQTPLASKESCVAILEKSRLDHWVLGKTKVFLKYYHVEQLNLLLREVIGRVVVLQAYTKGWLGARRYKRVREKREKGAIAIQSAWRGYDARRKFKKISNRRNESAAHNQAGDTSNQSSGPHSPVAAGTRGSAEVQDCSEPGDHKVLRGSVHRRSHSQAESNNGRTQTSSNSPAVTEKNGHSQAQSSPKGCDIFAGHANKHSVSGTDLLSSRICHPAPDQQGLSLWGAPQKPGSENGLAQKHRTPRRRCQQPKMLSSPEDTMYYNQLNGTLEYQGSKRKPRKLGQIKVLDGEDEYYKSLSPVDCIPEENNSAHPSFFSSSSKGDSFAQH
Put plainly: Selectivity interaction (KinomeScan (DiscoverX)) EUB0000655a MYO3B. The note with it: at 10 µM.

For assay [3], the target named is Hepatocyte growth factor-like protein (Homo sapiens) (UniProt P26927). Put plainly: Selectivity interaction (KinomeScan (DiscoverX)) EUB0000607a MST1. The note with it: at 10 µM.
Assay [4] addresses Cyclin-dependent kinase 1 (Homo sapiens) (UniProt P06493). Put plainly: Selectivity interaction (ActivX KiNativ screen (kinase selectivity in THP-1 cell lysates)) EUB0000639a CDK1. The class given is subcellular. The note with it: lysate.
Assay [5] deals with Serine/threonine-protein kinase mTOR (Homo sapiens, UniProt P42345). Put plainly: Selectivity interaction (ActivX KiNativ screen (ex vivo kinase selectivity in human PBMCs)) EUB0001619a MTOR. The format is cell-based. The note with it: PBMC, at 1 µM.
Assay [6] deals with T3, Serine/threonine-protein kinase Nek8 (Homo sapiens) (UniProt Q86SG6).
T3 sequence (whole entry): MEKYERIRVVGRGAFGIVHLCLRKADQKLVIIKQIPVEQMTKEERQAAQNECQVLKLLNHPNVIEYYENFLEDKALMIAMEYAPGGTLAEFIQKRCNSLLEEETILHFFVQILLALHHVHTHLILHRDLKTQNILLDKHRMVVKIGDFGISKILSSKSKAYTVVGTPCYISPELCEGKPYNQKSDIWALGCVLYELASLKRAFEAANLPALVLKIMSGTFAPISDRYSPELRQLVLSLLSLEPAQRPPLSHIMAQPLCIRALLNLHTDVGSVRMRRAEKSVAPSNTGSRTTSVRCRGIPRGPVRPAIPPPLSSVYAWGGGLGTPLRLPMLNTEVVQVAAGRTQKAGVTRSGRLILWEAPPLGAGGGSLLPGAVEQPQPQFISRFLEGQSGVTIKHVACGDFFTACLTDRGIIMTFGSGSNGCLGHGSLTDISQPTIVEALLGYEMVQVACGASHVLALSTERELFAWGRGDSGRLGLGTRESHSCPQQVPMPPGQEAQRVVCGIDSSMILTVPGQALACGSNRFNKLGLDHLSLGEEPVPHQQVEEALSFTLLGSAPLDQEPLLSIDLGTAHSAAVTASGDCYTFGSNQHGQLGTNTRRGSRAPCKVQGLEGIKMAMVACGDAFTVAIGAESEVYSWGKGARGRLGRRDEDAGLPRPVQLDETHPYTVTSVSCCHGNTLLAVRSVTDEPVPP
Put plainly: Selectivity interaction (Kinase panel (KiNativ target engagement assay in Jurkat cells)) EUB0001635a NEK8. The note with it: at 1 µM. The class given is cell-based.

Sequence of Cyclin-dependent kinase 1 (Homo sapiens) (P06493 whole entry, looked up): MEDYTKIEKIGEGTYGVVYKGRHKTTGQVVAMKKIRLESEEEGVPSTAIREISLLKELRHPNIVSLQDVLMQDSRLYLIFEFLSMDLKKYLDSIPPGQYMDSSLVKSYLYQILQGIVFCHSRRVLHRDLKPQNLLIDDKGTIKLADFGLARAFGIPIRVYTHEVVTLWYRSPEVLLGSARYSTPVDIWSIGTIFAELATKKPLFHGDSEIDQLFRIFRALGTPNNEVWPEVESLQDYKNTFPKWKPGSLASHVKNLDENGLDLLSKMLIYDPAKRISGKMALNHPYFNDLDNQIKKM

Regarding `CCN(CC)CCCCNc1ncc2cc(-c3cc(OC)cc(OC)c3)c(NC(=O)NC(C)(C)C)nc2n1`, in assay [1], the % of control is 100%. Turning to `CN(C)CCOc1ccc(-c2nc(-c3ccncc3)c(-c3ccc4c(c3)CC/C4=N\O)[nH]2)cc1`, in assay [2], the % of control worked out at 81%. The molecule `CNC(=O)Nc1ccc(-c2nc(N3CC4CCC(C3)O4)c3cnn(C4CCC5(CC4)OCCO5)c3n2)cc1` showed a % of control in assay [3] of 100%.

In the case of `CC[C@@H]1[C@H](F)C(=O)N[C@@H]1COc1nccc2cc(C(N)=O)c(OC)cc12` [ZIMLOVISERTIB], the % of inhibition in assay [4] (at 0.01 µM) is 2.4%; in assay [4] (at 0.04 µM), 3.3%; in assay [4] (at 0.2 µM), 14.8%; in assay [4] (at 1 µM), 3.1%; in assay [4] (at 5 µM), -9%. In the case of `N#Cc1cccc(-c2c[nH]c3ncnc(N4CCOCC4)c23)c1`, the % of inhibition in assay [5] was found to be 10%.

Regarding `C=CC(=O)Nc1ccc(C(=O)Nc2[nH]nc3c2CN(C(=O)N[C@H](CN(C)C)c2ccccc2)C3(C)C)cc1`, the % of engagement in assay [6] was -10.5%.
